Assay results published in PubChem BioAssay AID1553 (Sanford-Burnham Center for Chemical Genomics, 2009).
“And” between values parts separate entries of the source, which are not always exact repeats. Identical values can stand only once. The source made the active and inactive calls.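 How the source made its calls: active means compounds graded as giving a low, moderate or strong rise in tritium labelling of cell protein versus solvent control; inactive means the rest.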

Tested on: HeLa cells, 3H-mannose incorporation into glycoproteins
Assay: 3H-mannose glycoprotein labeling increase in HeLa – HeLa cells, orthogonal assay for PMI inhibitor project, late-stage follow-up (AID 1553);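 further: 1 fold = DMSO treated HeLa control cells; higher fold signals phosphomannose isomerase inhibition routing mannose into glycosylation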
[1] = fold increase, at 25 µM, stronger effect = higher value

SMILES	fold increase 3H incorporation (at 100 µM)	fold increase 3H incorporation [1]
O=c1c2c([N+](=O)[O-])cc([N+](=O)[O-])cc2sn1-c1ccc(F)c(Cl)c1	0.7 (inactive)	0.9
Cc1ccc(C)c(-n2sc3cc(F)ccc3c2=O)c1	0.6	1.4
Clc1nssc1=Nc1ccc(Br)cc1	0.5	3.6
CCOc1ccc(-c2nc(=S)[nH][nH]2)cc1	0.7 (inactive)	
Clc1ccc(Nc2ccccc2N=c2ssnc2Cl)cc1	0.4 (inactive)	0.3
COc1cc(N=c2ssnc2Cl)cc(OC)c1	1.9	1.1
CN(C)c1cccc(N=c2ssnc2Cl)c1	0.2 (inactive)	0.3
COC(=O)c1cccc(-n2sc3ccccc3c2=O)c1	1.7	1.5
Cc1cccc(-n2sc3cc(F)ccc3c2=O)c1C	0.5	2.1
OCc1ccccc1N=c1ssnc1Cl	0.9 (inactive)	0.9
Cc1ccnc(-n2sc3ccccc3c2=O)n1	1 (inactive)	0.9
CC(C)(C)c1ccc(N=c2ssnc2Cl)cc1	1 (inactive)	0.7
O=c1c2cc(F)ccc2sn1-c1ccccc1	1.6	2.3
Clc1nssc1=Nc1ccccc1	1.9	1.2
O=c1c2ccccc2sn1-c1ccc(Cl)c(S(=O)(=O)N2CCOCC2)c1	1.2 (inactive)	1
S=c1nc(-c2ccccc2Br)[nH][nH]1	0.9 (inactive)	
Cc1ccc(-n2sc3ccccc3c2=O)cc1	1 (inactive) and 0.6 (inactive)	1.1 and 1.2
O=c1c2ccccc2sn1-c1cccc(I)c1	0.7	3.4
CN(C)c1cccc(-n2sc3ccccc3c2=O)c1	1.1 (inactive)	1.3
O=[N+]([O-])c1ccc(N=c2ssnc2Cl)c2ccccc12	0.4	0.5
O=C1c2ccccc2SC1c1ccccc1 (stereo not given)	1.7	2.1

SMILES	fold increase 3H incorporation (at 100 µM)	fold increase 3H incorporation [1]
O=c1c2ccc(O)cc2sn1C1CCCC1	0.8 (inactive)	1.1
COc1cccc(-n2sc3ccccc3c2=O)c1	1.4	0.8
S=c1nc(-c2cccc(Br)c2)[nH][nH]1	0.9 (inactive)	
COc1cc(N=c2ssnc2Cl)cc(OC)c1OC	1.2 (inactive)	1.1
Cc1ccc(-n2sc3ccccc3c2=O)cc1S(=O)(=O)N1CCCCC1	1.4	1.2
Cc1[nH]n(-c2ccccc2)c(=S)c1C=Nc1cccc([N+](=O)[O-])c1	0.7 (inactive)	
O=[N+]([O-])c1ccc(N=c2ssnc2Cl)c([N+](=O)[O-])c1	1.5	
O=c1c2ccccc2sn1-c1ccc(Cl)cc1	0.6	3.4
FC(F)(F)c1ccc(N=c2ssnc2Cl)cc1	0.3	1.4
Cc1ccc(C)c(-n2[nH]c3ccccc3c2=O)c1	0.8 (inactive)	0.9
Clc1cccc(N=c2ssnc2Cl)c1	0.4	1.7
Cc1ccc(N=c2ssnc2Cl)cc1	1.6	1.1
CN(C)S(=O)(=O)c1cccc(-n2sc3ccccc3c2=O)c1	1.1	1.1
Cc1cccc(N=c2ssnc2Cl)c1	0.7	1.6
Cc1ccc(N=c2ssnc2Cl)c([N+](=O)[O-])c1	3.2	1.5
Clc1ccc(N=c2ssnc2Cl)cc1Cl	0.1 (inactive)	0.1
O=c1c2ccccc2sn1-c1cccc(C(F)(F)F)c1	0.7	1.2
Cc1ccc(N=c2ssnc2Cl)nc1	0	1.2
COc1cc([N+](=O)[O-])ccc1N=c1ssnc1Cl	1.4	1.3
COc1ccc(OC)c(N=c2ssnc2Cl)c1	1.7	2.5
S=c1nc(C2COc3ccccc3O2)[nH][nH]1 (stereo not given)	0.8 (inactive)	

SMILES	fold increase 3H incorporation (at 100 µM)	fold increase 3H incorporation [1]
O=c1c2ccccc2sn1-c1ccc2ccccc2c1	1.9	1.6
Clc1nss/c1=N\c1nccs1	1 (inactive)	1.1
COc1ccc(-c2nc(=S)[nH][nH]2)cc1OC	0.8 (inactive)	
Clc1ccc(N=c2ssnc2Cl)cc1	0.2 (inactive)	1.1
COc1ccc(N=c2ssnc2Cl)cc1OC	0.1 (inactive)	0.3
Oc1ccc(N=c2ssnc2Cl)cc1	0.7 (inactive)	0.8
COc1cc(N=c2ssnc2Cl)c(OC)cc1Cl	1.9	1.2
Cc1ccc(C)c(-n2sc3ccc(F)cc3c2=O)c1	1	2.9
O=c1c2ccccc2sn1-c1ccc(F)cc1	2.5	2.5
Cc1cccc(-n2sc3ccccc3c2=O)c1	2.3	2
Cc1ccc(N=c2ssnc2Cl)cc1C	0.8 (inactive)	0.8
COc1cc(-c2nc(=S)[nH][nH]2)cc(OC)c1OC	0.8 (inactive)	
CCc1cc(CC)c(N=c2ssnc2Cl)c(CC)c1	0.2	0.3
N#CC1=C2SCN(Cc3ccccc3)CN2C(=O)CC1c1ccc2c(c1)OCO2 (stereo not given)	1 (inactive)	
O=c1c2ccccc2sn1-c1nccs1	1 (inactive)	0.9
O=c1c2ccccc2sn1-c1cccc(Cl)c1	0.6	3.4
Nc1ccccc1N=c1ssnc1Cl	0.9 (inactive)	0.9
N#Cc1ccc(N=c2ssnc2Cl)cc1	1.1 (inactive)	1
O=c1c2ccccc2sn1-c1cccc(S(=O)(=O)Nc2ccc(Cl)cc2)c1	0.7 (inactive)	0.4
Cc1ccc(C)c(-n2sc3ccccc3c2=O)c1	1.5	1.4
Cc1ccc(C)c(N2Cc3ccccc3C2=O)c1	1.2 (inactive)	1.1

SMILES	fold increase 3H incorporation (at 100 µM)	fold increase 3H incorporation [1]
CN(C)c1ccc(N=c2ssnc2Cl)cc1	1 (inactive)	0.8
O=c1c2ccccc2sn1-c1cc(S(=O)(=O)N2CCOCC2)ccc1N1CCCC1	0.7 (inactive)	0.7
Clc1nss/c1=N\c1nc2ccccc2s1	0.1 (inactive)	0.7
O=c1c2ccc(F)cc2sn1-c1cc(Cl)ccc1Cl	0.8 (inactive)	1
O=c1c2ccccc2sn1-c1ccccc1	1	1.1
O=C(O)CCn1cc(C=C2C(=O)NC(=S)NC2=O)c(-c2cccc(Br)c2)n1	0.8 (inactive)	
O=C(O)c1ccccc1NS(=O)(=O)c1cccc(-n2sc3ccccc3c2=O)c1	0 (inactive)	0.2
O=c1c2ccccc2sn1-c1cc(S(=O)(=O)N2CCOCC2)ccc1N1CCOCC1	0.4 (inactive)	0.8
O=C(NCc1ccccc1)c1cccc(-n2sc3ccccc3c2=O)c1	1.2 (inactive)	1.2
Cc1ccc(N=c2ssnc2Cl)cc1[N+](=O)[O-]	0.2	2.1
S=c1nc(-c2cccc(Cl)c2)[nH][nH]1	1 (inactive)	
Cc1c(Cl)cccc1-n1sc2cc([N+](=O)[O-])cc(OCC(F)(F)F)c2c1=O	1.1 (inactive)	1.4
O=C(O)c1cccc(-n2sc3ccccc3c2=O)c1	0.5 (inactive)	0.5
CCSc1n[nH]c(=S)s1	1 (inactive)	1
O=c1c2c([N+](=O)[O-])cc([N+](=O)[O-])cc2sn1-c1ccc(F)cc1	0.8 (inactive)	0.9
Clc1nss/c1=N\c1nncs1	0.5 (inactive)	0.9
COc1ccc2c(=O)n(C3CCCC3)sc2c1	0 (inactive)	0.9
Cc1ccc(C=Nn2c(-c3ccncc3)n[nH]c2=S)cc1	1 (inactive)	
Cc1ccc(C)n1-c1nc(=S)[nH][nH]1	1 (inactive)	
COc1ccc(-c2nc(=S)[nH][nH]2)cc1	0.8 (inactive)	1
O=c1c2c([N+](=O)[O-])cc([N+](=O)[O-])cc2sn1-c1ccccc1F	0.9 (inactive)	0.9
